One experiment deals with tGLP-1 release. In words: Clinical experiment: duodenal bolus in healthy male volunteers, plasma tGLP-1 release. It is filed as in vivo, human. The note with it: for plasma tGLP-1 levels during the first 25 minutes: duodenal bolus, compared to vehicle. Here is the method:
FIG. 4. Stimulation of tGLP-1 release by 2OG in the intestinal lumen. Eight healthy male volunteers were given enteral feeding by duodenal tube. Each volunteer was given three different liquid meals (two grams of 2OG(▴), 1.54 grams of oleic (∘) acid or vehicle (⋄)) on three different days. The vehicle consisted of 50 ml glycerol plus 5 ml ethanol. Data are mean values±SEM and were analysed by repeated measurements ANOVA.
8 healthy male volunteers (20-30 years, BMI 20-25) that had fasted 10 hours, were given enteral feeding by duodenal tube. The liquid meals were prepared 5 min before use. Each volunteer was given three different liquid meals (clear solution, bolus 55 ml) on three different days (A-C).
Day A: 2OG (2 g) in 50 ml glycerol+5 ml ethanol Day B: oleic acid (1.54 g) in 50 ml glycerol+5 ml ethanol Day C: 50 ml glycerol+5 ml ethanol Blood Samples were collected at the following points (min): −15, −10, 0, 10, 20, 30, 40, 50, 60, 75, 90, 120, 150, 180, 240.
In serum was measured: insulin and C-peptide
In plasma was measured: glucose, tGLP-1, Cholecystokinin (CCK).
The methods for these assays have been described previously (ref 18).

The target in experiment [1] is T1, human GPR119 receptor (Homo sapiens, UniProt Q8TDV5).
T1 sequence (Q8TDV5 1-335): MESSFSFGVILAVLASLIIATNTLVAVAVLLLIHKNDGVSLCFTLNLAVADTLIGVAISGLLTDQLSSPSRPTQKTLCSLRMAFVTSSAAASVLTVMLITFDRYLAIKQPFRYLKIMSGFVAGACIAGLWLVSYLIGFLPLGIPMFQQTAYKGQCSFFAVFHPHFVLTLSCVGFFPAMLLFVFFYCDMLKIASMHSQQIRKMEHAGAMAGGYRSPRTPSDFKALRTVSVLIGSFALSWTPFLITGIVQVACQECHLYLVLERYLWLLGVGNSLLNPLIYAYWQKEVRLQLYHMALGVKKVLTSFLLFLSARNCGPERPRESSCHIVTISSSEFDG
Description: Ligand-induced GPR119 activation, cAMP accumulation (3H-adenine) in transiently transfected COS-7 cells. It is filed as cell-based. Details: expressed in transfected cells; host or cells: COS-7. How it is done: Three different ligands were tested: (C) oleoylethanolamide (OEA), (A) 2-oleoylglycerol (2OG), and (D) oleic acid, by measurement of cAMP accumulation. Briefly, COS-7 cells were transiently transfected with the human GPR119 receptor (squares) or empty vector (negative control, triangle). The cells were seeded in plates one day after transfection, incubated for 24 hours with 2 μCi/ml of ^3H-adenine. At the day of the cAMP measurement, the cells incubated with the ligands for 25 minutes, lysed, and the cAMP purified using Dowex and alumina columns. The data represent sum-curves of three independent experiments (n=3), performed in duplicates. All dose-response curves were normalized to the efficacy of OEA in each experiment, and the data are shown as ligand-induced activation above basal receptor activity.
Briefly, COS-7 cells were transiently transfected with human GPR119 receptor (squares) or empty vector (negative control, triangle). The cells were seeded in plates one day after transfection, incubated for 24 hours with 2 μCi/ml of ^3H-adenine. At the day of the cAMP measurement, the cells were incubated with the ligand for 25 minutes, lysed, and the cAMP purified using Dowex and alumina columns. The data represent sum-curves of the 7 independent experiments, performed in duplicates.
GPR119 receptor signalling experiments were carried out using COS-7 cells transiently transfected with the human GPR119 receptor. The COS-7 cells were grown at 10% CO2 and 37° C. in Dulbecco's modified Eagle's medium with glutamax (Gibco, Cat. No 21885-025) adjusted with 10% fetal bovine serum (FBS), 180 u/ml penicillin and 45 ug/mL streptomycin (PenStrep). Transfection of the COS-7 cells was performed by the calcium phosphate precipitation method. The cells were seeded in 24 well plates (1.5×10^5 cells/well) one day after transfection, and were subsequently incubated for 24 hours with 2 μCi/ml of 3H-adenine in 0.5 ml growth medium per well. At the day of the cAMP measurement, the cells were washed twice in HBS buffer (25 mM Hepes, pH 7.2, supplemented with 0.75 mM NaH2PO4, 140 mM NaCl and 0.05% (w/v) bovine serum albumin), and 0.5 ml HBS buffer supplemented with 1 mM of the phosphodiesterase inhibitor IBMX (3-isobutyl-1-methylxanthine, Sigma chemicals Co., St. Louis, Mo., USA) was added together with increasing concentrations of the different compounds (2OG, 1OG, OEA, oleic acid or 2-PG). After 25 min incubation at 37° C., the cells were placed on ice, the medium was removed, and the cells were lysed in 1 ml of 5% (w/v) trichloroacetic acid, supplemented with 0.1 mM cAMP and 0.1 mM ATP for 30 min. The lysate mixtures were loaded onto Dowex columns (Bio-Rad, Hercules, Calif., USA), which were washed with 2 ml of water and placed onto the top of alumina columns (Sigma) and washed again with 10 ml of water. The alumina columns were eluted with 6 ml of 0.1 M imidazole into 15 ml scintillation fluid (Highsafe III). Columns were re-used up to 15 times. Dowex columns were regenerated by adding 10 ml of 2 N HCl followed by 10 ml of water; the alumina columns were regenerated by adding 2 ml of 1 M imidazole, 10 ml of 0.1 M imidazole, and finally 5 ml of water. Determinations were made in duplicate.
In general terms: Cyclic AMP is a second messenger, typically raised through Gs and lowered through Gi signalling.

Experiment [2] has as its target T1, human GPR119 receptor. Description: Ligand-induced GPR119 activation, cAMP formation (HTRF) in CHO-K1 cells. In kind it is cell-based. On the set-up: expressed in transfected cells. The note with it: for cAMP formation / GPR119 activation in words: CHO-K1 cells transiently expressing GPR119, FIG. 1; for EC50: CHO-K1 cells, cAMP formation. Here is the method: FIG. 1. Ligand-induced GPR119 activation in CHO-K1 cells. Five different ligands were tested. Oleoylethanolamide, H-1: 2-oleoylglycerol, H-2: 1-oleoyleglycerol, H-4: oleic acid, and H-5: 2-palmitoylglycerol. cAMP was measured by a HTRF kit from CisBio International. Three experiments (each in duplicate) were performed using oleoylethanolamide as positive control in each experiment. All dose-response curves were normalized to the efficacy of OEA in each experiment, and the data are shown as ligand-induced activation above basal receptor activity.
GPR119 receptor signalling experiments were carried out using CHO-K1 cells transiently transfected with the human GPR119 receptor. CHO-K1 cells expressing GPR119 grown to mid-log phase prior to the test in culture media without antibiotics and supplemented with doxycycine (final concentration 200 ng/ml) were detached be gentle flushing with PBS-EDTA (5 mM EDTA), recovered by centrifugation and resuspended in Ham's F12 culture medium containing 10% FCS and no antibiotic. Cells were counted, centrifuged in a 50 ml Falcon tube and resuspended in KRH-IBMX (5 mM KCL, 1.25 mM MgSO4, 124 mM NaCl, 25 mM HEPES, 13.3 mM glucose, 1.25 mM KH2PO4, 1.45 mM CaCl2, 0.6 mg/ml BSA and […] Phenol red, pH 7.4) at a concentration of 6.25×10^5 cells/ml. Cells were then filled in 96 well plates (total vol 24 μl/well) and stimulated with agonists in serial dilution for 30 min. cAMP was then measured using a HTRF kit from CisBio International (cat no. 62AM2PEB). Determinations were made in duplicate.

Setting [3] is: COS-7 cells, cAMP formation, n = 3, read-out: EC-values for activation of GPR119, COS-cells (n = 3).
The mark [4] stands for this setting: transiently transfected COS-7 cells, Table 2, read-out: EC50 for activation of GPR119.
The mark [5] stands for this setting: experiment 1, read-out: EC-values for activation of GPR119, CHO-exp-1.
Setting [6] is: experiment 2, read-out: EC-values for activation of GPR119, CHO-exp-2.
Where [7] appears, read: experiment 3, read-out: EC-values for activation of GPR119, CHO-exp-3.

`CCCCCCCC/C=C\CCCCCCCC(=O)OC(CO)CO` [2-Oleoylglycerol, 2-oleoylglycerol]: the plasma cholecystokinin levels result in the experiment with tGLP-1 release (comparison between groups, data not shown) is reported as “no difference”. In the experiment with tGLP-1 release (fasted volunteers), the “plasma tGLP-1 levels during the first 25 minutes” value is recorded as “significant increased levels of tGLP-1”. Besides, in the experiment on tGLP-1 release (healthy male volunteers, duodenal tube, 2 g 2OG or 1.54 g oleic acid in 50 ml glycerol + 5 ml ethanol, mean±SEM), the “incremental area under the curve (iAUC) of tGLP-1 for the first 25 min” value was determined as 0.07±0.02 nM×25 min. The “plasma levels of glucose” value in the experiment with tGLP-1 release (increase after 25 min in all three groups, comparison between groups, data not shown) is listed as “no difference between groups”. For the same compound, the “insulin or c-peptide levels” value in the experiment with tGLP-1 release (serum, fasted volunteers, data not shown) is “no effect”. Besides, the EC50 on human GPR119 receptor [1] (setting [3]) is 2.8 µM; at human GPR119 receptor [1] (setting [4]), 4.2 µM; at human GPR119 receptor [2] (setting [5]), 1.55 µM; on human GPR119 receptor [2] (setting [6]), 1.12 µM. The “GPR119 agonism (efficacy normalized to OEA)” value at human GPR119 receptor [1] (cAMP formation, COS-7 cells (also CHO-K1)) is on record as “full agonist”. Further, the “cAMP formation / GPR119 activation in words” value on human GPR119 receptor [2] was “increase cAMP formation”.
Take `CCCCCCCCCCCCCCCC(=O)OC(CO)CO` [2-palmitolyglycerol (2PG), 2-palmitoylglycerol]: the EC50 on human GPR119 receptor [1] (setting [4]) was over 30 µM. Besides, at human GPR119 receptor [2], the “cAMP formation / GPR119 activation in words” value is “activator of GPR119”.
Consider `CCCCCCCC/C=C\CCCCCCCCOC(CO)CO` [2OG-ether], for which the EC50 at human GPR119 receptor [1] (setting [4]) is 7.9 µM.
Take `CCCCCCCC/C=C\CCCCCCCC(=O)NCCO` [Oleoylethanolamide, oleoylethanolamide, reference compound]: the EC50 on human GPR119 receptor [1] (setting [3]) was 1.4 µM; on human GPR119 receptor [2] (setting [5]) it was 1.43 µM; on human GPR119 receptor [2] (setting [6]) it was 4.65 µM; on human GPR119 receptor [2] (setting [7]), 1.67 µM.
Consider `CCCCCCCC/C=C\CCCCCCCC(=O)O` [oleic acid, reference compound], for which the “plasma tGLP-1 levels during the first 25 minutes” value with tGLP-1 release (fasted volunteers) is “did not increase plasma levels of GLP-1”. Further, the EC50 at human GPR119 receptor [1] (setting [3]) was 32.6 µM; on human GPR119 receptor [1] (setting [4]) it was over 30 µM; at human GPR119 receptor [2] (setting [7]) it was over 30 µM.

The values are drawn from patent US20120128770A1, “TREATMENT OF INSULIN RESISTANCE AND OBESITY BY STIMULATING GLP-1 RELEASE” (Kobenhavns Universitet, priority 2009, published 2012).
